Laboratory results reported in the supplement of paper PMC11061612.

Legend:
Assay in all cases: combination Emax (second highest fraction inhibited in the dose matrix, 72 h); higher = more inhibition; extreme values may be limits of the assay
[1] = system: BHT-101 (Thyroid Gland Carcinoma)
Outline: (§1)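 Cell lines in DMEM/F12 or RPMI with 10% FBS were plated in 1536-well plates, held 24 hours at 37°C, 5% CO2, then given two-drug dose matrices for 72 hours (DMSO typically 0.2%). Viability was read by CellTiter-Glo 2.0 luminescence and scaled as inhibition from 0 (vehicle wells) to 1 (blank wells). Combination Emax is the second-highest inhibition in the matrix; Bliss excess is observed combination effect minus expected EA + EB − EA·EB, EA and EB being single-agent effects.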

[2] = system: COR-L88 (Small Cell Lung Carcinoma)
Outline: as §1

ES6 (Ewing's Sarcoma) = system: ES6 (Ewing's Sarcoma)
Outline: as §1

IST-MEL1 (Melanoma) = system: IST-MEL1 (Melanoma)
Outline: as §1

KALS-1 (Glioblastoma) = system: KALS-1 (Glioblastoma)
Outline: as §1

[3] = system: MOLP-8 (Plasma Cell Myeloma)
Outline: as §1

[4] = system: MOLT-13 (T-Lymphoblastic Leukemia)
Outline: as §1

[5] = system: MONO-MAC-6 (Acute Myeloid Leukemia)
Outline: as §1

[6] = system: NAMALWA (Burkitt's Lymphoma)
Outline: as §1

[7] = system: NCI-H1963 (Small Cell Lung Carcinoma)
Outline: as §1

NCI-H2373 (Mesothelioma) = system: NCI-H2373 (Mesothelioma)
Outline: as §1

[8] = system: P30-OHK (B-Lymphoblastic Leukemia)
Outline: as §1

[9] = system: P32-ISH (Burkitt's Lymphoma)
Outline: as §1

[10] = system: RCC-JW (Kidney Carcinoma)
Outline: as §1

[11] = system: SK-CO-1 (Colorectal Carcinoma)
Outline: as §1

[12] = system: SNU-407 (Colorectal Carcinoma)
Outline: as §1

[13] = system: TUR (Acute Myeloid Leukemia)
Outline: as §1

WM35 (Melanoma) = system: WM35 (Melanoma)
Outline: as §1

[14] = system: ZR-75-30 (Breast Carcinoma)
Outline: as §1

Compound | combination Emax [1] | combination Emax [2] | combination Emax (ES6 (Ewing's Sarcoma)) | combination Emax (IST-MEL1 (Melanoma)) | combination Emax (KALS-1 (Glioblastoma)) | combination Emax [3] | combination Emax [4] | combination Emax [5] | combination Emax [6] | combination Emax [7] | combination Emax (NCI-H2373 (Mesothelioma)) | combination Emax [8] | combination Emax [9] | combination Emax [10] | combination Emax [11] | combination Emax [12] | combination Emax [13] | combination Emax (WM35 (Melanoma)) | combination Emax [14]
COc1nnc2ccc(N3CCC(c4ccc(OCCN5CCN(C)C(=O)[C@H]5C)cc4)CC3)nn12 [AZD5153] + CCN(CCO)CCCOc1ccc2c(Nc3cc(CC(=O)Nc4cccc(F)c4)[nH]n3)ncnc2c1 [AZD2811] (first compound max 1 µM, 7x7, partner max 1 µM) | 0.7 | 0.237 | 0.43 | 0.289 | 0.606 | 0.933 | 1 | 0.995 | 0.748 | 0.882 | 0.41 | 1 | 0.873 | 0.3 | 0.571 | 0.866 | 0.827 | 0.534 | 0.313
COc1nnc2ccc(N3CCC(c4ccc(OCCN5CCN(C)C(=O)[C@H]5C)cc4)CC3)nn12 [AZD5153] + Cn1cnc2c(F)c(Nc3ccc(Br)cc3Cl)c(C(=O)NOCCO)cc21 [Selumetinib] (first compound max 1 µM, 7x7, partner max 10 µM) | 0.966 | 0.247 | 0.297 | 0.389 | 0.738 | 0.98 | 0.979 | 0.986 | 0.771 | 0.757 | 0.439 | 0.999 | 0.65 | 0.3 | 0.804 | 0.938 | 0.744 | 0.968 | 0.305
CC(=O)c1c(C)c2cnc(Nc3ccc(N4CCNCC4)cn3)nc2n(C2CCCC2)c1=O [Palbociclib] + Cc1c2c(nn1C)CSCc1cc(n(C)n1)CSc1cc(c3ccccc3c1)OCCCc1c(C(=O)O)n(C)c3c-2c(Cl)ccc13 [AZD5991] (first compound max 10 µM, 7x7, partner max 1 µM) | 0.675 | 0.307 | 0.412 | 0.258 | 0.229 | 1 | 1 | 1 | 0.956 | 0.534 | 0.328 | 0.811 | 1 | 0.255 | 0.455 | 0.621 | 0.621 | 0.208 | 0.26
NC1(C(=O)N[C@@H](CCO)c2ccc(Cl)cc2)CCN(c2ncnc3[nH]ccc23)CC1 [Capivasertib] + CC(C)n1c(=O)n(C)c2cnc3cc(F)c(-c4ccc(OCCCN5CCCCC5)nc4)cc3c21 [AZD1390] (first compound max 10 µM, 7x7, partner max 0.3 µM) | 0.341 | 0.0851 | 0.349 | 0.359 | 0.41 | 0.452 | 0.132 | 0.594 | 0.44 | 0.434 | 0.545 | 0.176 | 0.557 | 0.387 | 0.281 | 0.503 | 0.809 | 0.259 | 0.419
COc1nnc2ccc(N3CCC(c4ccc(OCCN5CCN(C)C(=O)[C@H]5C)cc4)CC3)nn12 [AZD5153] + C=CCn1c(=O)c2cnc(Nc3ccc(N4CCN(C)CC4)cc3)nc2n1-c1cccc(C(C)(C)O)n1 [AZD1775] (first compound max 1 µM, partner max 1 µM) | 0.737 | 0.677 | 0.516 | 0.524 | 0.723 | 0.956 | 1 | 0.989 | 0.969 | 0.952 | 0.399 | 1 | 0.982 | 0.382 | 0.56 | 0.89 | 0.867 | 0.467 | 0.309
C[C@@H](c1ccc2nccn2c1)n1nnc2ncc(-c3cnn(C)c3)nc21 [Savolitinib] + CN(CC[C@H](CSC1=CC=CC=C1)NC2=C(C=C(C=C2)S(=O)(=O)NC(=O)C3=CC=C(C=C3)N4CCC(CC4)[C@H](C5=CC=CC=C5C6=CC=C(C=C6)Cl)O)S(=O)(=O)C(F)(F)F)CCO [AZD4320] (first compound max 1 µM, 7x7, partner max 1 µM) | 0.176 |  |  |  |  | 0.216 | 0.912 |  |  | 1 | 0.0896 | 0.948 | 0.165 |  |  | 0.722 | 0.135 | 0.251 | 
